{
  "source": "patent US20070122470A1",
  "about": "“New Combination Dosage Form” (priority 2005, published 2007)",
  "key": {"[1]": {"conditions": "concomitant administration for patients treated with ASA (Müller et al 1997); cited from earlier work"}, "[2]": {"assay": "randomized, double-blind, placebo-controlled trial of esomeprazole 20 mg once daily for 26 weeks in patients receiving ASA", "format": "in vivo", "experimental": "Patients were randomized to receive either esomeprazole 20 mg (administered as esomeprazole magnesium, i.e. Nexium® owned by AstraZeneca AB) or placebo once daily for 26 weeks. The primary outcome variable was the presence of gastric and/or duodenal ulcers at endoscopy over the 26-week period. A total of 991 patients, all receiving ASA in doses varying between 75-325 mg/day (57.1% male, mean age 69.3 years, mean acetyl salicylic acid (ASA) dose 124.0 mg/day) were included in the intent-to-treat population. The cumulative proportion of patients without either gastric or duodenal ulcer at 26 weeks was 98.2% with esomeprazole, compared with 93.8% with placebo (life table estimates, p=0.0007). The incidence of gastric ulcers was lower in patients taking esomeprazole than in those taking placebo (1.2% vs. 3.8%), as was the incidence of duodenal ulcers (0.4% and 1.6% for esomeprazole and placebo, respectively). Eight patients (1.6%) had developed an ulcer, in the esomeprazole group by 6 months, compared with 27 patients (5.4%) in the placebo group. This corresponded to a relative reduction of developing an ulcer of 70% when taking esomeprazole rather than placebo. A total of 95.6% of patients treated with esomeprazole had no esophageal lesions at week 26, compared with 81.7% of patients treated with placebo (p<0.0001)."}, "[3]": {"conditions": "cited from earlier work"}, "[4]": {"conditions": "esomeprazole 20 mg once daily, 26 weeks, patients on ASA"}},
  "data": [
    {"compound": "Cc1c(OCC(F)(F)F)ccnc1C[S+]([O-])c1nc2ccccc2[nH]1", "note": "(stereo not drawn) [lansoprazole]", "values": [
      {"measurement": "effect on damages on the mucosa caused by ASA", "setting": "[1]", "value": "reduce damages on the mucosa caused by ASA"}
    ]},
    {"compound": "COc1ccc2nc([S@@+]([O-])Cc3ncc(C)c(OC)c3C)[nH]c2c1", "note": "[esomeprazole]", "values": [
      {"measurement": "resolution of investigator-assessed upper gastrointestinal symptoms", "setting": "[2]; all symptoms, versus placebo", "value": "higher with esomeprazole than with placebo"},
      {"measurement": "safety and tolerability", "setting": "[2]; esomeprazole 20 mg once daily for 26 weeks, patients on ASA", "value": "safe and well tolerated"},
      {"measurement": "incidence of duodenal ulcers", "setting": "[2]; [4]", "value": 0.4, "unit": "%"},
      {"measurement": "incidence of gastric ulcers", "setting": "[2]; [4]", "value": 1.2, "unit": "%"},
      {"measurement": "cumulative proportion of patients without either gastric or duodenal ulcer at 26 weeks", "setting": "[2]; esomeprazole 20 mg once daily, 26 weeks, patients ≧60 years on ASA 75-325 mg/day, life table estimates, p=0.0007 vs placebo", "value": 98.2, "unit": "%"},
      {"measurement": "patients who had developed an ulcer by 6 months", "setting": "[2]; esomeprazole 20 mg once daily, patients on ASA, eight patients", "value": 1.6, "unit": "%"},
      {"measurement": "patients with no esophageal lesions at week 26", "setting": "[2]; esomeprazole 20 mg once daily, patients on ASA, p<0.0001 vs placebo", "value": 95.6, "unit": "%"},
      {"measurement": "relative reduction of developing an ulcer", "setting": "[2]; esomeprazole rather than placebo, by 6 months", "value": 70, "unit": "%"},
      {"measurement": "proportion of patients without esophageal lesions at 6 months", "setting": "[2]; patients with no lesions and those with Los Angeles grade A lesions at baseline, versus placebo", "value": "higher with esomeprazole than with placebo"}
    ]},
    {"compound": "CC(=O)Oc1ccccc1C(=O)O", "note": "[ASA, acetyl salicylic acid]", "values": [
      {"measurement": "relative risk of developing an ulcer complication like bleeding from the stomach or the duodenum", "setting": "[3]; daily dose as low as 75 mg (Weil et al BMJ 1995)", "value": "doubles"},
      {"measurement": "hospital admissions due to adverse drug reactions caused by ASA", "setting": "[3]; epidemiological data from the UK (Pirmohamed et al BMJ 2004)", "value": 18, "unit": "%"}
    ]}
  ]
}
